# Assay results as given in publication PMC7226045, “Ensartinib (X-396) Effectively Modulates Pharmacokinetic Resistance Mediated by ABCB1 and ABCG2 Drug Efflux Transporters and CYP3A4 Biotransformation Enzyme” (Cancers, 2020).
# Like-named read-outs stand apart in the source and are kept apart here.
# Tests used:
# [1] = system: MDCKII-parent cells; assay: MTT proliferation / drug combination assay, MDCKII-parent; type: cell-based, canine; settings: Canis lupus familiaris, 48 h
# Method: (§1) MTT proliferation assay was performed as described previously.
# [2] = system: MDCKII-ABCB1 cells; assay: MTT proliferation / drug combination assay, MDCKII-ABCB1; settings: Canis lupus familiaris, 48 h
# Method: MTT proliferation assay was performed as described previously. Cells were seeded on a 96-well culture plate at densities (in units of cells/well) of 1.3 × 10^4 for MDCKII-par, MDCKII-ABCB1, MDCKII-ABCG2, and MDCKII-ABCC1; 1.2 × 10^4 for A431-par, A431-ABCB1, A431-ABCG2 and A431-ABCC1; 1.2 × 10^4 for NCI-H1299; 2.0 × 10^4 for Caco-2; 5.0 × 10^4 for LS174T; and 6.0 × 10^4 for HepG2-CYP3A4 and HepG2-EV. After seeding, the cells were cultured for 24 h, then the media was removed and the cells were treated with serial dilutions of a drug or drug combination for 48 h. Vehicles containing media and 40% DMSO in media served as 100% and 0% viability controls, respectively. Upon completion of the 48 h period, the cells were washed once with 1× PBS, the media was replaced with an MTT solution in Opti-MEM (1 mg/mL), and the cells were incubated under standard conditions for 60 min. MTT solution was carefully removed and the resulting formazan crystals were immediately solubilized in DMSO. The cells were then shaken gently for 10 min, after which absorbance of their lysate was measured at 570 nm and 690 nm using a microplate reader (Infinite M200, Tecan, Salzburg, Austria); background values obtained at 690 nm were subtracted from the measurements obtained at 570 nm. This method was used to assess the effect of ABC transporters on sensitivity to ensartinib, in drug combination assays, and to identify drug concentrations appropriate for use in induction studies.
# (§2) Experiments focusing on the modulation of ABC transporter-mediated resistance were performed as described previously. The parent MDCKII and HL60 cells and their ABCB1-, ABCG2-, and ABCC1-overexpressing counterparts were seeded at the densities specified above onto 96-well culture plates and cultured for 24 h. The medium was subsequently replaced with serial dilutions of ensartinib alone or with various concentrations of a model MDR-susceptible cytostatic agent (daunorubicin or mitoxantrone) with or without 10 µM ensartinib. After 48 h incubation, the cells’ viability was determined as described above. In addition to performing IC50-shift analyses, the viability measurements were converted to FA (fraction of cells affected) values and the effects of drug combinations were quantified using the Chou-Talalay combination index (CI) method as implemented in CompuSyn 3.0.1 (ComboSyn Inc., Paramus, NJ, USA). The effects of concomitantly administered drugs were classified as synergistic (CI < 0.9), additive (0.9 < CI < 1.1), or antagonistic (CI > 1.1) based on the computed CI values.
# [3] = system: HL60-parent cells; assay: XTT proliferation / drug combination assay, HL60-parent; type: cell-based, human; settings: Homo sapiens, 48 h
# Method: The parent MDCKII and HL60 cells and their ABCB1-, ABCG2-, and ABCC1-overexpressing counterparts were seeded at the densities specified above onto 96-well culture plates and cultured for 24 h. The medium was subsequently replaced with serial dilutions of ensartinib alone or with various concentrations of a model MDR-susceptible cytostatic agent (daunorubicin or mitoxantrone) with or without 10 µM ensartinib. After 48 h incubation, the cells’ viability was determined as described above. In addition to performing IC50-shift analyses, the viability measurements were converted to FA (fraction of cells affected) values and the effects of drug combinations were quantified using the Chou-Talalay combination index (CI) method as implemented in CompuSyn 3.0.1 (ComboSyn Inc., Paramus, NJ, USA). The effects of concomitantly administered drugs were classified as synergistic (CI < 0.9), additive (0.9 < CI < 1.1), or antagonistic (CI > 1.1) based on the computed CI values [57].
# [4] = system: HL60-ABCB1 cells; assay: XTT proliferation / drug combination assay, HL60-ABCB1; settings: Homo sapiens, 48 h
# Method: (§3) The MTT method is not readily adapted for use with suspension cell cultures, therefore the XTT assay was used to assess the proliferation of HL60 cells. Briefly, HL60-par, HL60-ABCB1, HL60-ABCG2, and HL60-ABCC1 cells were seeded at 2 × 10^4 cells/well in 96-well culture plates. Immediately after seeding, dilutions of the tested drugs or drug combinations were added to the cells. The plates were then incubated under standard conditions (37 °C, 5% CO2) for 48 h, after which XTT solution in PBS (1 mg/mL) and phenazine methosulfate (7.50 µg/mL) were added to the cells and the plates were incubated for another 5 h. Finally, the cells’ absorbance was measured at 450 nm using a microplate reader (Infinite M200, Tecan, Salzburg, Austria). This method was used to assess the effect of ABC transporters on sensitivity to ensartinib and in drug combination assays.
# as §2
# [5] = system: HepG2-CYP3A4 cells; assay: Docetaxel combination assay (MTT), HepG2-CYP3A4; type: cell-based, human; settings: 1 µM docetaxel
# Method: as §1
# (§4) Cell viability was measured after a 48 h incubation using the MTT method as described above. […] Sensitization effects of < 0%, 0%, and >0% indicate antagonism, additivity, and synergism, respectively.
# [6] = system: HepG2-EV cells; assay: Docetaxel combination assay (MTT), HepG2-EV; type: cell-based, human; settings: 1 µM docetaxel, <0% antagonism, =0% additivity, >0% synergism
# Method: as §1, §4
# [7] = system: MDCKII-ABCG2 cells; assay: MTT proliferation / drug combination assay, MDCKII-ABCG2; type: cell-based, canine; settings: Canis lupus familiaris, cytostatic alone or with 10 µM ensartinib, 48 h
# Method: as §1
# [8] = system: HL60-ABCG2 cells; assay: XTT proliferation / drug combination assay, HL60-ABCG2; type: cell-based, human; settings: Homo sapiens, cytostatic alone or with 10 µM ensartinib, 48 h
# Method: as §3, §2
structure (smiles),measurement,setting,value
COc1cccc2c1C(=O)c1c(O)c3c(c(O)c1C2=O)C[C@@](O)(C(C)=O)C[C@@H]3O[C@H]1C[C@H](N)[C@H](O)[C@H](C)O1 [daunorubicin],IC50,[1],947 nM
same,IC50,[2],11900 nM
same,IC50,[3],53.1 nM
same,IC50,[4],2390 nM
CC(=O)O[C@@]12CO[C@@H]1C[C@H](O)[C@@]1(C)C(=O)[C@H](O)C3=C(C)[C@@H](OC(=O)[C@H](O)[C@@H](NC(=O)OC(C)(C)C)c4ccccc4)C[C@@](O)([C@@H](OC(=O)c4ccccc4)[C@H]21)C3(C)C [docetaxel],viability at 1 µM,"[5]; Homo sapiens, 48 h, HepG2-CYP3A4 vs HepG2-EV, read-out: viability of CYP3A4-overexpressing cells greater than that of empty vector cells",24.4%
CC(=O)N1CCN(c2ccc(OCC3COC(Cn4ccnc4)(c4ccc(Cl)cc4Cl)O3)cc2)CC1 (centres unmarked) [ketoconazole],sensitization effect of combination with docetaxel,"[5]; HepG2-CYP3A4, <0% antagonism, =0% additivity, >0% synergism",synergistic
same,sensitization effect of combination with docetaxel,[6],antagonistic
O=C1c2c(O)ccc(O)c2C(=O)c2c(NCCNCCO)ccc(NCCNCCO)c21 [mitoxantrone],IC50,"[1]; MDCKII-parent, cytostatic alone or with 10 µM ensartinib, read-out: IC50",1590 nM
same,IC50,[7],9980 nM
same,IC50,"[3]; HL60-parent, cytostatic alone or with 10 µM ensartinib, read-out: IC50",30.5 nM
same,IC50,[8],666 nM
